Source: patent US20240116985A1, “STAPLED PEPTIDES AND METHODS THEREOF” (priority 2020, published 2024)
pIC50: −log10 of the molar value. Values after ≈ are worked out from the molar mass of the structure shown. Read-outs that look alike come from different tables or passages of the source.

Assays:
[1] = molecular target: T1, full-length beta-Catenin (Uniprot ID P35222) (Homo sapiens, UniProt P35222); test: Fluorescence polarization IC50 (beta-catenin / 5FAM-TCF4 10-53 competition); format: binding
T1 construct: 10 nM full-length beta-Catenin (Uniprot ID P35222)
T1 sequence (P35222 1-781): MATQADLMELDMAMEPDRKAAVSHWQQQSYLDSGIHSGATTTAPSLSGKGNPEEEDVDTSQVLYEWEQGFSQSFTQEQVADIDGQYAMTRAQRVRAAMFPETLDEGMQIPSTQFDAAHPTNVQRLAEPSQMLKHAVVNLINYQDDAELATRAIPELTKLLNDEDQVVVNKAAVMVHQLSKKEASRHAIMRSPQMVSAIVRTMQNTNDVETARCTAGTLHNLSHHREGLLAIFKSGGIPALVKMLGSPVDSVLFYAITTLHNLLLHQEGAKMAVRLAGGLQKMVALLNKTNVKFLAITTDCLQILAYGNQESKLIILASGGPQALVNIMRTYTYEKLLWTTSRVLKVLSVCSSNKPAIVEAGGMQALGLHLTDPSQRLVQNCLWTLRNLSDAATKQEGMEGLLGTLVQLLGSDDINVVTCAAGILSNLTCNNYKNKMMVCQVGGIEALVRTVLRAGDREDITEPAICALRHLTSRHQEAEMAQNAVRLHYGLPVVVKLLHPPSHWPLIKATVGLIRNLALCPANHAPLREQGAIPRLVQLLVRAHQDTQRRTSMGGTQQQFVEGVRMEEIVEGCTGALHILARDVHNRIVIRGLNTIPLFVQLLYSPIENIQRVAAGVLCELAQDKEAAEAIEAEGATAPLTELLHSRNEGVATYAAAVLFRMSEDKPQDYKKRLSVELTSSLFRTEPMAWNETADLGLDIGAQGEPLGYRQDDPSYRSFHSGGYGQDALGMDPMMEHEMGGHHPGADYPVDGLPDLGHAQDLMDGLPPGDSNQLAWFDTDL

[2] = Solubility in PBS; format: physicochemical
Outline: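 PBS sample ultracentrifuged; supernatant run on HPLC vs. 50 μM peptide in DMSO standard. Solubility = (PBS peak area / DMSO peak area) × 50 uM.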

[3] = CHI Log D procedure; format: physicochemical; conditions: pH 7.4
[4] = fluorescence polarization, beta-catenin, read-out: FP EC50

For `CC(=O)N1CCC[C@]12CC=CCCCC1(CCCC=CCCCOC(=O)N3CC[C@@](C(=O)N[C@@H](Cc4ccsc4)C(=O)N[C@@H](Cc4csc5ccccc45)C(=O)N[C@@H](CO)C(N)=O)(C3)NC(=O)[C@H](CO)NC(=O)[C@H](Cc3ccccc3)NC(=O)[C@H](C)NC(=O)[C@H](C)NC(=O)[C@H](CN(CC(=O)O)CC(F)(F)F)NC(=O)[C@H](CC(=O)O)NC1=O)NC(=O)[C@H](CC(C)(C)C)NC(=O)[C@H](CC(=O)O)NC2=O` (stereo partly drawn) [I-954, Ac-PL3-Asp-Npg-B5-Asp-TfeGA-Ala-Ala-Phe-Ser-PyrS2-3Thi-BztA-Ser-NH2], the pIC50 [1, 4] was 6.05, the pIC50 ([1]; read-out: beta-Catenin FP IC50) was 6.05 and the “Solubility” value [2] was 46 µM (≈ 90.2 µg/mL). The “CHI Log D” value [3] was 1.918.
For `CC(=O)N1CCC[C@]12CC=CCCCC1(CCCC=CCCCOC(=O)N3CC[C@@](C(=O)N[C@@H](Cc4ccsc4)C(=O)N[C@@H](Cc4csc5ccccc45)C(=O)N[C@@H](CO)C(N)=O)(C3)NC(=O)[C@H](CO)NC(=O)[C@H](Cc3ccccc3)NC(=O)[C@H](C)NC(=O)[C@H](C)NC(=O)[C@H](CN(CC(=O)O)CC(F)(F)F)NC(=O)[C@H](CC(=O)O)NC1=O)NC(=O)[C@H](CC(C)(C)C)NC(=O)[C@H](CC(=O)O)NC2=O` (stereo partly drawn) [I-955, Ac-PL3-Asp-Npg-B5-Asp-TfeGA-Ala-Ala-Phe-Ser-PyrS2-3Thi-BztA-Ser-NH2], the pIC50 [1, 4] was 5.92, the pIC50 ([1]; read-out: beta-Catenin FP IC50) was 5.92 and the “Solubility” value [2] was 45 µM (≈ 88.3 µg/mL). The “CHI Log D” value [3] was 1.998.
In the case of `CC(=O)N1CCC[C@]12CC=CCCCC1(CCCC=CCCCOC(=O)N3CC[C@@](C(=O)N[C@@H](Cc4ccsc4)C(=O)N[C@@H](Cc4csc5ccccc45)C(=O)N[C@@H](CO)C(N)=O)(C3)NC(=O)[C@H]([C@@H](C)O)NC(=O)[C@H](Cc3ccccc3)NC(=O)[C@H](C)NC(=O)[C@H](C)NC(=O)[C@H](CN(CC(=O)O)CC(F)(F)F)NC(=O)[C@H](CC(=O)O)NC1=O)NC(=O)[C@H](CC(C)(C)C)NC(=O)[C@H](CC(=O)O)NC2=O` (stereo partly drawn) [I-956, Ac-PL3-Asp-Npg-B5-Asp-TfeGA-Ala-Ala-Phe-Thr-PyrS2-3Thi-BztA-Ser-NH2], the pIC50 [1, 4] was 5.96, the pIC50 ([1]; read-out: beta-Catenin FP IC50) was 5.96 and the “Solubility” value [2] was 46 µM (≈ 90.9 µg/mL). For the same compound, the “CHI Log D” value [3] was 1.875.
In the case of `CC(=O)N1CCC[C@]12CC=CCCCC1(CCCC=CCCCOC(=O)N3CC[C@@](C(=O)N[C@@H](Cc4ccsc4)C(=O)N[C@@H](Cc4csc5ccccc45)C(=O)N[C@@H](CO)C(N)=O)(C3)NC(=O)[C@H]([C@@H](C)O)NC(=O)[C@H](Cc3ccccc3)NC(=O)[C@H](C)NC(=O)[C@H](C)NC(=O)[C@H](CN(CC(=O)O)CC(F)(F)F)NC(=O)[C@H](CC(=O)O)NC1=O)NC(=O)[C@H](CC(C)(C)C)NC(=O)[C@H](CC(=O)O)NC2=O` (stereo partly drawn) [I-957, Ac-PL3-Asp-Npg-B5-Asp-TfeGA-Ala-Ala-Phe-Thr-PyrS2-3Thi-BztA-Ser-NH2], the pIC50 [1, 4] was 5.85, the pIC50 ([1]; read-out: beta-Catenin FP IC50) was 5.85 and the “Solubility” value [2] was 46 µM (≈ 90.9 µg/mL). For the same compound, the “CHI Log D” value [3] was −0.043.
For `CC(=O)N1CCC[C@]12CC=CCCCC1(CCCC=CCCCOC(=O)N3CC[C@@](C(=O)N[C@@H](Cc4ccsc4)C(=O)N[C@@H](Cc4csc5ccccc45)C(=O)N[C@@H](CO)C(N)=O)(C3)NC(=O)[C@H](CCO)NC(=O)[C@H](Cc3ccccc3)NC(=O)[C@H](C)NC(=O)[C@H](C)NC(=O)[C@H](CN(CC(=O)O)CC(F)(F)F)NC(=O)[C@H](CC(=O)O)NC1=O)NC(=O)[C@H](CC(C)(C)C)NC(=O)[C@H](CC(=O)O)NC2=O` (stereo partly drawn) [I-958, Ac-PL3-Asp-Npg-B5-Asp-TfeGA-Ala-Ala-Phe-Hse-PyrS2-3Thi-BztA-Ser-NH2], the pIC50 [1, 4] was 6.22, the pIC50 ([1]; read-out: beta-Catenin FP IC50) was 6.22 and the “Solubility” value [2] was 47 µM (≈ 92.8 µg/mL). For the same compound, the “CHI Log D” value [3] was 1.417.
With `CC(=O)N1CCC[C@]12CC=CCCCC1(CCCC=CCCCOC(=O)N3CC[C@@](C(=O)N[C@@H](Cc4ccsc4)C(=O)N[C@@H](Cc4csc5ccccc45)C(=O)N[C@@H](CO)C(N)=O)(C3)NC(=O)[C@H](CCO)NC(=O)[C@H](Cc3ccccc3)NC(=O)[C@H](C)NC(=O)[C@H](C)NC(=O)[C@H](CN(CC(=O)O)CC(F)(F)F)NC(=O)[C@H](CC(=O)O)NC1=O)NC(=O)[C@H](CC(C)(C)C)NC(=O)[C@H](CC(=O)O)NC2=O` (stereo partly drawn) [I-959, Ac-PL3-Asp-Npg-B5-Asp-TfeGA-Ala-Ala-Phe-Hse-PyrS2-3Thi-BztA-Ser-NH2] the pIC50 [1, 4] was 6.06, the pIC50 ([1]; read-out: beta-Catenin FP IC50) was 6.06 and the “Solubility” value [2] was 48 µM (≈ 94.8 µg/mL). For the same compound, the “CHI Log D” value [3] was −0.036.
For `CC(=O)N1CCC[C@]12CC=CCCCC1(CCCC=CCCCOC(=O)N3CC[C@@](C(=O)N[C@@H](Cc4ccsc4)C(=O)N[C@@H](Cc4csc5ccccc45)C(=O)N[C@@H](CO)C(N)=O)(C3)NC(=O)[C@H](CC(C)C)NC(=O)[C@H](Cc3ccccc3)NC(=O)[C@H](C)NC(=O)[C@H](C)NC(=O)[C@H](CN(CC(=O)O)CC(F)(F)F)NC(=O)[C@H](CC(=O)O)NC1=O)NC(=O)[C@H](CC(C)(C)C)NC(=O)[C@H](CC(=O)O)NC2=O` (stereo partly drawn) [I-960, Ac-PL3-Asp-Npg-B5-Asp-TfeGA-Ala-Ala-Phe-Leu-PyrS2-3Thi-BztA-Ser-NH2], the pIC50 [1, 4] was 6.47, the pIC50 ([1]; read-out: beta-Catenin FP IC50) was 6.47 and the “Solubility” value [2] was 13 µM (≈ 25.8 µg/mL). The “CHI Log D” value [3] was 2.06.
With `CC(=O)N1CCC[C@]12CC=CCCCC1(CCCC=CCCCOC(=O)N3CC[C@@](C(=O)N[C@@H](Cc4ccsc4)C(=O)N[C@@H](Cc4csc5ccccc45)C(=O)N[C@@H](CO)C(N)=O)(C3)NC(=O)[C@H](CC(C)C)NC(=O)[C@H](Cc3ccccc3)NC(=O)[C@H](C)NC(=O)[C@H](C)NC(=O)[C@H](CN(CC(=O)O)CC(F)(F)F)NC(=O)[C@H](CC(=O)O)NC1=O)NC(=O)[C@H](CC(C)(C)C)NC(=O)[C@H](CC(=O)O)NC2=O` (stereo partly drawn) [I-961, Ac-PL3-Asp-Npg-B5-Asp-TfeGA-Ala-Ala-Phe-Leu-PyrS2-3Thi-BztA-Ser-NH2] the pIC50 [1, 4] was 6.45, the pIC50 ([1]; read-out: beta-Catenin FP IC50) was 6.45 and the “Solubility” value [2] was 10 µM (≈ 19.9 µg/mL). For the same compound, the “CHI Log D” value [3] was 2.123.
With `CCN(CC(=O)O)C[C@@H]1NC(=O)[C@H](CC(=O)O)NC(=O)C2(CCCC=CCCCOC(=O)N3CC[C@@](C(=O)N[C@@H](Cc4ccsc4)C(=O)N[C@@H](Cc4csc5ccccc45)C(=O)N[C@@H](CCC(N)=O)C(N)=O)(C3)NC(=O)[C@H](CC(N)=O)NC(=O)[C@H](Cc3ccccc3)NC(=O)[C@H](C)NC(=O)[C@H](C)NC1=O)CCCC=CC[C@]1(CCCN1C(C)=O)C(=O)N[C@@H](CC(=O)O)C(=O)N[C@@H](CC(C)(C)C)C(=O)N2` (stereo partly drawn) [I-964, Ac-PL3-Asp-Npg-B5-Asp-EtGA-Ala-Ala-Phe-Asn-PyrS2-3Thi-BztA-Gln-NH2] the pIC50 [1, 4] was 5.84, the pIC50 ([1]; read-out: beta-Catenin FP IC50) was 5.84 and the “Solubility” value [2] was 46 µM (≈ 90.9 µg/mL). For the same compound, the “CHI Log D” value [3] was 1.802.
For `CCN(CC(=O)O)C[C@@H]1NC(=O)[C@H](CC(=O)O)NC(=O)C2(CCCC=CCCCOC(=O)N3CC[C@@](C(=O)N[C@@H](Cc4ccsc4)C(=O)N[C@@H](Cc4csc5ccccc45)C(=O)N[C@@H](CCC(N)=O)C(N)=O)(C3)NC(=O)[C@H](CC(N)=O)NC(=O)[C@H](Cc3ccccc3)NC(=O)[C@H](C)NC(=O)[C@H](C)NC1=O)CCCC=CC[C@]1(CCCN1C(C)=O)C(=O)N[C@@H](CC(=O)O)C(=O)N[C@@H](CC(C)(C)C)C(=O)N2` (stereo partly drawn) [I-965, Ac-PL3-Asp-Npg-B5-Asp-EtGA-Ala-Ala-Phe-Asn-PyrS2-3Thi-BztA-Gln-NH2], the pIC50 [1, 4] was 5.75, the pIC50 ([1]; read-out: beta-Catenin FP IC50) was 5.75 and the “Solubility” value [2] was 45 µM (≈ 88.9 µg/mL). The “CHI Log D” value [3] was 1.903.
In the case of `CCN(CC(=O)O)C[C@@H]1NC(=O)[C@H](CC(=O)O)NC(=O)C2(CCCC=CCCCOC(=O)N3CC[C@@](C(=O)N[C@@H](Cc4ccsc4)C(=O)N[C@@H](Cc4csc5ccccc45)C(=O)N[C@@H](CCC(N)=O)C(N)=O)(C3)NC(=O)[C@H](CO)NC(=O)[C@H](Cc3ccccc3)NC(=O)[C@H](C)NC(=O)[C@H](C)NC1=O)CCCC=CC[C@]1(CCCN1C(C)=O)C(=O)N[C@@H](CC(=O)O)C(=O)N[C@@H](CC(C)(C)C)C(=O)N2` (stereo partly drawn) [I-966, Ac-PL3-Asp-Npg-B5-Asp-EtGA-Ala-Ala-Phe-Ser-PyrS2-3Thi-BztA-Gln-NH2], the pIC50 [1, 4] was 5.69, the pIC50 ([1]; read-out: beta-Catenin FP IC50) was 5.69 and the “Solubility” value [2] was 43 µM (≈ 83.8 µg/mL). The “CHI Log D” value [3] was 1.791.
For `CCN(CC(=O)O)C[C@@H]1NC(=O)[C@H](CC(=O)O)NC(=O)C2(CCCC=CCCCOC(=O)N3CC[C@@](C(=O)N[C@@H](Cc4ccsc4)C(=O)N[C@@H](Cc4csc5ccccc45)C(=O)N[C@@H](CCC(N)=O)C(N)=O)(C3)NC(=O)[C@H](CO)NC(=O)[C@H](Cc3ccccc3)NC(=O)[C@H](C)NC(=O)[C@H](C)NC1=O)CCCC=CC[C@]1(CCCN1C(C)=O)C(=O)N[C@@H](CC(=O)O)C(=O)N[C@@H](CC(C)(C)C)C(=O)N2` (stereo partly drawn) [I-967, Ac-PL3-Asp-Npg-B5-Asp-EtGA-Ala-Ala-Phe-Ser-PyrS2-3Thi-BztA-Gln-NH2], the pIC50 [1, 4] was 5.76, the pIC50 ([1]; read-out: beta-Catenin FP IC50) was 5.76 and the “Solubility” value [2] was 45 µM (≈ 87.7 µg/mL). For the same compound, the “CHI Log D” value [3] was 1.884.
